# Assay results taken from ChEMBL document CHEMBL1131355 (Bioorg Med Chem Lett, 1998).
# Target: 5-hydroxytryptamine receptor 2A (Rattus norvegicus, UniProt P14842)
# Experiment: biochemical
# Type: tissue-based, Frontal cortex, Membrane
# Description: Compound was measured for the inhibition of [3H]ketanserin binding to rat frontal cortex membrane (5-HT2A receptor)
# Chain of 5-hydroxytryptamine receptor 2A (P14842 whole entry): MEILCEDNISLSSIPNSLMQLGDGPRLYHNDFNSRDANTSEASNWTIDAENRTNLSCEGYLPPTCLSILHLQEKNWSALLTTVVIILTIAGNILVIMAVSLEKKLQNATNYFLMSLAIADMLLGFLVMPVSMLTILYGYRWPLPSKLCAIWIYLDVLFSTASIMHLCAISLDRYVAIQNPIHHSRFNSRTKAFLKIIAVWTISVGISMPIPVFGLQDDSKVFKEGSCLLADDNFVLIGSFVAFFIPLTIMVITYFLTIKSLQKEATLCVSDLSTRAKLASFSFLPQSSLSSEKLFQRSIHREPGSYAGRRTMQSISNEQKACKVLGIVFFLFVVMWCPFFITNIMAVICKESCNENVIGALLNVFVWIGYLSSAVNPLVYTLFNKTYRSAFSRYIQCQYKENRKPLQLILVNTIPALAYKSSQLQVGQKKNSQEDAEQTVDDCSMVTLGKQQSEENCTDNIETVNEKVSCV
row,Ki [nM],Compound
1,1.58,O=C1CC(CN2CCC(c3noc4cc(F)ccc34)CC2)Cc2[nH]c3ccccc3c21 (stereo not drawn)
2,9.12,O=C1CC(CN2CCC(C(=O)c3ccc(F)cc3)CC2)Cc2[nH]c3ccccc3c21 (stereo not drawn)
3,631,COc1ccccc1N1CCN(CC2CC(=O)c3c([nH]c4ccccc34)C2)CC1 (stereo not drawn)
